Laboratory results published in ChEMBL document CHEMBL1143189.

Molecular target: T1, Type-1 angiotensin II receptor A (Rattus norvegicus) (UniProt P25095)
T1 sequence (whole entry): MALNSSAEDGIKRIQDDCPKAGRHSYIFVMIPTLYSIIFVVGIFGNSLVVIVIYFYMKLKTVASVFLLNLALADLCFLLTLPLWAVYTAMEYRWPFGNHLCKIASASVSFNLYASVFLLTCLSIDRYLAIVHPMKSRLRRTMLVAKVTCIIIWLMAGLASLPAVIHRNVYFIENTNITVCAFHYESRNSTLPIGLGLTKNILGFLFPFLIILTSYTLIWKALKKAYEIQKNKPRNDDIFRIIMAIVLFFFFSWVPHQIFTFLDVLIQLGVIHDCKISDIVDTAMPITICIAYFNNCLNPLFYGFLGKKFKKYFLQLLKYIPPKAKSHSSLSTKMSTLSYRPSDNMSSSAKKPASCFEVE
Experiment: Antagonist activity at rat AT1 receptor expressed in CHO cells assessed as angiotensin 2-evoked increase in intracellular calcium level
Format: functional, cell-based

pKb: 8.8
SMILES: CCCCc1ncc(/C=C(\Cc2cccs2)C(=O)O)n1Cc1ccc(C(=O)O)cc1
